This test has as its target T1, human GluN1/GluN2B NMDA receptors (Homo sapiens, UniProt Q13224).
T1 construct: expressed in transfected cells
Put plainly: Cell-based calcium flux (FLIPR) assay on cloned human NR1/NR2B ion channels expressed in mammalian cells (standard and HTS buffer variants).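 Further: stable Tet-On inducible cell line, Ca2+ influx triggered by glutamate at about EC40 plus 10 µM glycine, fluorescent dye read-out over 5 min, normalized to control wells.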 The following applies: read-out: NR2B IC50 (μM) standard assay.

Where [1] appears, read: standard assay buffer (0.5 mM MgCl2 in dye loading buffer; 137 mM NaCl, 4 mM KCl in assay buffer), human GluN1/GluN2B.
[2] abbreviates: standard assay buffer (0.5 mM MgCl2 dye loading; 137 mM NaCl, 4 mM KCl assay buffer), human GluN1/GluN2B cells.

Where two headings read alike, the source gives them in different places.

T1 sequence (Q13224 27-1484, other chains not shown): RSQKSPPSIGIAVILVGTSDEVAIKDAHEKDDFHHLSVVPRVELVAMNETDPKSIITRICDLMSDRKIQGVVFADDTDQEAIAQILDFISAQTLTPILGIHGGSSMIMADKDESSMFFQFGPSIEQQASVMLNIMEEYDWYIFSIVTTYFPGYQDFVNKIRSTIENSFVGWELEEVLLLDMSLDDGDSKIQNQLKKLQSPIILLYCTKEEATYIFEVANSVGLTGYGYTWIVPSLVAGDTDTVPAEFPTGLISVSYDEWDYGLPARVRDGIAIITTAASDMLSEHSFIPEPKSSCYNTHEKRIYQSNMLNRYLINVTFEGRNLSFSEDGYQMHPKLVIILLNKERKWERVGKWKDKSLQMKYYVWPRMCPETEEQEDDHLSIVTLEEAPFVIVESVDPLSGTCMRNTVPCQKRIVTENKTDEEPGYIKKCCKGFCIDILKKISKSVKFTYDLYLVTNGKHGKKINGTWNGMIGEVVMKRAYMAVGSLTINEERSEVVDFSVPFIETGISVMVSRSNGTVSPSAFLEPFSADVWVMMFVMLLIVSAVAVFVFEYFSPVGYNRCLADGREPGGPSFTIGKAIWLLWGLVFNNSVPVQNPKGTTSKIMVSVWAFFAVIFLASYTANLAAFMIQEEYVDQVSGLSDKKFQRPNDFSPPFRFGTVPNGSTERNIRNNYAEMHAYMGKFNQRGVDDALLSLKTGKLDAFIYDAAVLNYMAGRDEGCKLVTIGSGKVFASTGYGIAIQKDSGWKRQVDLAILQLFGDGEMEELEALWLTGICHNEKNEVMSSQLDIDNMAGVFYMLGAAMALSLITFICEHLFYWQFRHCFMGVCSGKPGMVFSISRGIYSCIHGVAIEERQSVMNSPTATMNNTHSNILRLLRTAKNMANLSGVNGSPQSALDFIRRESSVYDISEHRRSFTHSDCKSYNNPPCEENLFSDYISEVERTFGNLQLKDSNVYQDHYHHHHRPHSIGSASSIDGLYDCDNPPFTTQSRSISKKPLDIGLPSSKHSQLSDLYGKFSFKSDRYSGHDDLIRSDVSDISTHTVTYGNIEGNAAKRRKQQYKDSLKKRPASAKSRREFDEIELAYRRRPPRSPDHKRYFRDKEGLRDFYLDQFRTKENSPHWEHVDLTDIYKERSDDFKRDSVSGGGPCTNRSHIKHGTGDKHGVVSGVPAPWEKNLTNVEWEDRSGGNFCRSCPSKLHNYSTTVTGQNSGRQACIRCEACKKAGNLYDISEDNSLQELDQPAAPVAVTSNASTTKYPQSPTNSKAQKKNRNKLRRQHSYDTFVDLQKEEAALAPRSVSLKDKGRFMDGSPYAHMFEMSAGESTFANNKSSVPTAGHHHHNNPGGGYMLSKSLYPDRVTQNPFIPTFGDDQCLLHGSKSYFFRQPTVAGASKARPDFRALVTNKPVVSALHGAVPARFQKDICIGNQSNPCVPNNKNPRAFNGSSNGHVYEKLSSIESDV

As usually defined, the IC50 is the concentration at which inhibition is half-maximal. On to `Cc1cc(F)ccc1-c1cnc2[nH]c(=O)n(Cc3cccc(C#N)c3)c2c1` [Example 479, 3-[[6-(4-Fluoro-2-methyl-phenyl)-2-oxo-3H-imidazo[4,5-b]pyridin-1-yl]methyl]benzonitrile], for which the IC50 under setting [1] is 0.778 µM.
As to `Cc1noc(Cn2c(=O)n(C)c3ncc(-c4ccc(F)c(F)c4)cc32)n1` [Example 77, 6-(3,4-Difluorophenyl)-3-methyl-1-[(3-methyl-1,2,4-oxadiazol-5-yl)methyl]imidazo[4,5-b]pyridin-2-one], under setting [2], the IC50 was 0.457 µM.
With `CC1CCN(CCn2c(=O)[nH]c3ncc(-c4cccc(C(F)(F)F)c4)cc32)C1` (centres unmarked) [Example 164, 1-[2-(3-Methylpyrrolidin-1-yl)ethyl]-6-[3-(trifluoromethyl)phenyl]-3H-imidazo[4,5-b]pyridin-2-one], the IC50 under setting [2] is 1.22 µM.
`Cn1c(=O)n(CC(=O)N2CCC2)c2cc(-c3csc(C(F)(F)F)c3)cnc21` [Example 104, 1-[2-(Azetidin-1-yl)-2-oxo-ethyl]-3-methyl-6-[5-(trifluoromethyl)-3-thienyl]imidazo[4,5-b]pyridin-2-one]: the IC50 under setting [2] worked out at 0.048 µM.
As for `CCOC(=O)Cn1c(=O)[nH]c2ncc(-c3cccc(C(F)(F)F)c3)cc21` [Example 134, Ethyl 2-[2-oxo-6-[3-(trifluoromethyl)phenyl]-3H-imidazo[4,5-b]pyridin-1-yl]acetate], the IC50 under setting [2] turned out to be 0.035 µM.
On to `O=C(Cn1c(=O)[nH]c2ncc(-c3cc(OCCF)cc(C(F)(F)F)c3)cc21)N1CCC1` [Example 539, 1-[2-(Azetidin-1-yl)-2-oxo-ethyl]-6-[3-(2-fluoroethoxy)-5-(trifluoromethyl)phenyl]-3H-imidazo[4,5-b]pyridin-2-one], for which, under setting [1], the IC50 was determined as 0.333 µM.
As for `Cn1cc(Cn2c(=O)n(C)c3ncc(-c4ccc(C(F)F)s4)cc32)cn1` [Example 561, 6-[5-(Difluoromethyl)-2-thienyl]-3-methyl-1-[(1-methylpyrazol-4-yl)methyl]imidazo[4,5-b]pyridin-2-one], the IC50 under setting [1] was 0.354 µM.
Same read-out and setting: with `CN(C)C(=O)Cn1c(=O)n(C)c2ncc(-c3cc(F)c(F)c(C(F)(F)F)c3)cc21` [Example 431, 2-[6-[3,4-Difluoro-5-(trifluoromethyl)phenyl]-3-methyl-2-oxo-imidazo[4,5-b]pyridin-1-yl]-N,N-dimethyl-acetamide] the figure was 0.095 µM.
On to `Cc1cc(-c2cnc3[nH]c(=O)n(Cc4ncccc4C)c3c2)ccc1F` [Example 316, 6-(4-Fluoro-3-methyl-phenyl)-1-[(3-methyl-2-pyridyl)methyl]-3H-imidazo[4,5-b]pyridin-2-one], for which the 50% inhibitory concentration (IC50) under setting [2] is 0.114 µM.
For the molecule `O=c1[nH]c2ncc(-c3cccc(C(F)(F)F)c3)cc2n1C(F)(F)c1cccnc1` [Example 237, 1-[Difluoro(3-pyridyl)methyl]-6-[3-(trifluoromethyl)phenyl]-3H-imidazo[4,5-b]pyridin-2-one], the IC50 under setting [2] is > 10 µM.
As to `O=c1[nH]c2ncc(-c3cccc(C(F)(F)F)c3)cc2n1Cc1cncnc1` [Example 255, 1-(Pyrimidin-5-ylmethyl)-6-[3-(trifluoromethyl)phenyl]-3H-imidazo[4,5-b]pyridin-2-one], the IC50 under setting [2] came out at 0.043 µM.
Regarding `Cc1cncc(Cn2c(=O)[nH]c3ncc(-c4ccc(F)c(C(F)(F)F)c4)cc32)c1` [Example 309, 6-[4-Fluoro-3-(trifluoromethyl)phenyl]-1-[(5-methyl-3-pyridyl)methyl]-3H-imidazo[4,5-b]pyridin-2-one], the IC50 under setting [2] was determined as 0.316 µM.
With `CNC(=O)Cn1c(=O)[nH]c2ncc(-c3ccc(F)cc3OC)cc21` [Example 440, 2-[6-(4-Fluoro-2-methoxy-phenyl)-2-oxo-3H-imidazo[4,5-b]pyridin-1-yl]-N-methyl-acetamide], the IC50 under setting [1] came to 0.358 µM.
Regarding `O=c1[nH]c2ncc(-c3cccc(C(F)(F)F)c3)cc2n1Cc1cnccc1C(F)(F)F` [Example 260, 6-[3-(Trifluoromethyl)phenyl]-1-[[4-(trifluoromethyl)-3-pyridyl]methyl]-3H-imidazo[4,5-b]pyridin-2-one], the IC50 under setting [2] is 2.86 µM.
